# Test system: HepG2 (liver cancer) cells
# Assay: MTT cancer cell viability assay, HepG2
# Assay type: cell-based
# Conditions: HepG2, 48 h
# Experimental: A possible therapeutic application of GLUT3 inhibitors is in oncology, especially for cancers in which GLUT3 is a poor prognosis marker. We tested the effect of GLUT3 inhibitors on the cell viability of several different cancer lines: myeloid leukemia (HL60 and U937), lung cancer (A549), colorectal adenocarcinoma (Caco-2), breast cancer (MCF7), hepatocellular carcinoma (HepG2), and choriocarcinoma (BeWo) cells. GLUT3 inhibitors, at five different concentrations, ranging from 2 to 100 µM, were incubated with cancer cells for 48 h. Then, cell viability was assessed with the MTT assay. […] G3iC and G3iD also affected the leukemia cell lines but at double the concentrations of G3iB and G3iE. […] G3iB had some cytotoxic activity (CC50 < 50 µM) against the highest number of cancer cell lines (HL60, U937, A549, HepG2, and MCF7).
# Cancer cell viability in the presence of GLUT3 inhibitors was assayed using the MTT Cell Viability Kit (Biotium Inc, Freemont, CA) according to manufacturer’s instructions. Cancer cells were grown in the corresponding medium, at 37 °C and 5% CO2 in a humidified incubator. The media (Gibco) for leukemia cells (HL60 and U937), A549, MCF7, BeWo, and HepG2 cells were RPMI 1640, Ham’s F-12K, DMEM:F-12, Ham’s F-12K, and EMEM, respectively, all supplemented with 10% (v/v) fetal bovine serum (HyClone). Caco-2 cells were grown in EMEM supplemented with 20% (v/v) fetal bovine serum. Cells were detached from the culture flasks with Accutase (Innovative Cell Technologies, Inc., San Diego, CA) according to manufacturer’s instructions. Cells were seeded in 96-well plates, at a density of ~ 30,000 cells/well (in 100 µl fresh media) and incubated with varying concentrations of GLUT3 inhibitors for 48 h, at 37 °C and 5% CO2 in a humidified incubator. The inhibitors were dissolved in DMSO, at 100× the final concentration, so that 1 µl of the stock inhibitor concentration was added per well, making the final DMSO concentration 1% (v/v). Therefore, controls for 100% cell viability were cells with 1% (v/v) DMSO without the inhibitors. Controls for 0% cell viability were cells treated with 0.3% (v/v) Tween 20. For MTT assay, 10 µl of MTT reagent was added in each well followed by 3–4 h incubation at 37 °C and 5% CO2 in a humidified incubator. After thoroughly mixing in 200 µl DMSO in each well, the plates were put into a plate reader (BioTek Synergy H1), and the absorbances at 570 nm and 630 nm were measured with Gen5 program (BioTek Inc.). The experimental values represent Abs570 nm-Abs630 nm with each inhibitor condition and control being the average of three wells.
# Supplementary Figure S8. Effect of GLUT3 inhibitors on the viability of various cancer cell lines. Cell viability was determined by MTT assay in A549 (lung cancer), BeWo (choriocarcinoma), Caco-2 (colon cancer), HepG2 (liver cancer), HL-60 (leukemia), MCF7 (breast cancer), and U937 (histiocytic lymphoma) cell lines. GLUT3 inhibitors at concentrations of 2, 5, 10, 20, 50, and 100 µM were incubated with cells in 96-well plates for 48 hours before the addition of the MTT reagent.
SMILES,CC50 (Homo sapiens),CC50
"CC(=O)Nc1ccc(S(=O)(=O)Nc2ccc(Nc3cc(N(C)C)nc(C)n3)cc2)cc1 [G3iA, N-(4-{[(4-{[6-(dimethylamino)-2-methylpyrimidin-4-yl]amino}phenyl)amino]sulfonyl}phenyl)acetamide]",> 100 µM,–
"COc1ccccc1-n1c(/C=C/c2ccc(O)cc2)nc2ccc(Br)cc2c1=O [G3iB, 6-bromo-2-[(E)-2-(4-hydroxyphenyl)ethenyl]-3-(2-methoxyphenyl)quinazolin-4(3H)-one]",< 50 µM,39.3 ± 4 µM
Cc1cccnc1OC1CCN(c2cc(N3CCCC3CO)ncn2)CC1 (stereo not shown) [G3iC],> 100 µM,–
Cc1cc(NC(=O)CCC2Cc3ccccc3NC2=O)nc(-c2ccccc2)n1 (stereo not shown) [G3iD],> 100 µM,–
"O=C(Nc1cccc(Cl)c1)c1cccc(NC(=O)c2cccc([N+](=O)[O-])c2)c1 [G3iE, N-{3-[(3-chloroanilino)carbonyl]phenyl}-3-nitrobenzamide]",> 100 µM,–
Cc1ccccc1CN(Cc1nnc(C(C)(C)C)o1)c1ccc2nc(O)[nH]c2c1 [G3iF],> 100 µM,–

# Source: PMC8791944, “GLUT3 inhibitor discovery through in silico ligand screening and in vivo validation in eukaryotic expression systems” (Scientific Reports, 2022)
